Data reported in US20020065219A1, “Water soluble thiazolyl peptide derivatives” (priority 2000, published 2002).
Converted amounts (≈) assume the structure as drawn. Like-named read-outs stand apart in the source and are kept apart here.

Key:
Test in all cases: MIC, broth micro dilution assay (NCCLS)
Assay type in all cases: cell-based
[1] = tested on: Enterococcus faecalis A20688; settings: for MIC: Enterococcus faecalis, A20688, 18 h, read-out: MIC (μg/mL) against Enterococcus faecalis A20688
[2] = tested on: Streptococcus pneumoniae A28272; settings: for MIC: Streptococcus pneumoniae, A28272, 18 h, read-out: MIC (μg/mL) against Streptococcus pneumoniae A28272
[3] = tested on: Staphylococcus aureus A15090; settings: for MIC: Staphylococcus aureus, A15090, 18 h, read-out: MIC (μg/mL) against Staphylococcus aureus A15090
[4] = Mueller-Hinton medium, 35° C., 18 hours
[5] = 50% Mueller-Hinton medium and 50% Todd Hewitt medium, 35° C., 18 hours

SMILES | MIC (μg/mL) against Enterococcus faecalis A20688 [1, 4] | MIC (μg/mL) against Streptococcus pneumoniae A28272 [2, 5] | MIC (μg/mL) against Staphylococcus aureus A15090 [3, 4] | other results
COC(C)=C1NC(=O)C(C(C)O)NC(=O)c2csc(n2)-c2cc(O)c(-c3nc(C(=O)NC(CN4CCCC4C(O)C(C)C)C(N)=O)cs3)nc2-c2csc(n2)C2COC(=O)c3c4c5c(cccc5n3O)COC(=O)C(OC3CC(C)(O)C(N(C)C)C(C)O3)C(OC4)C(NC(=O)c3csc1n3)c1nc(cs1)C(=O)N2 (stereo not drawn) [Example 81] | 0.125 µg/mL (≈ 0.0791 µM) | 0.007 µg/mL (≈ 0.00443 µM) | 0.125 µg/mL (≈ 0.0791 µM) | –
COC(C)=C1NC(=O)C(C(C)O)NC(=O)c2csc(n2)-c2cc(O)c(-c3nc(C(=O)NC(CSCC(=O)O)C(N)=O)cs3)nc2-c2csc(n2)C2COC(=O)c3c4c5c(cccc5n3O)COC(=O)C(O)C(OC4)C(NC(=O)c3csc1n3)c1nc(cs1)C(=O)N2 (stereo not drawn) [Example 95] | 4.0 µg/mL (≈ 2.94 µM) | 0.03 µg/mL (≈ 0.0221 µM) | 0.5 µg/mL (≈ 0.368 µM) | –
CO/C(C)=C1/NC(=O)C(C(C)O)NC(=O)c2csc(n2)-c2cc(O)c(-c3nc(C(=O)NC(CNCCCCN)C(N)=O)cs3)nc2-c2csc(n2)C2COC(=O)c3c4c5c(cccc5n3O)COC(=O)C(O[C@H]3C[C@](C)(O)[C@H](N(C)C)[C@H](C)O3)C(OC4)C(NC(=O)c3csc1n3)c1nc(cs1)C(=O)N2 (stereo partly drawn) [Example 11] | 8.0 µg/mL (≈ 5.24 µM) | 0.5 µg/mL (≈ 0.328 µM) | 2.0 µg/mL (≈ 1.31 µM) | –
CO/C(C)=C1/NC(=O)C(C(C)O)NC(=O)c2csc(n2)-c2cc(O)c(-c3nc(C(=O)NC(CNCCN(C)C)C(N)=O)cs3)nc2-c2csc(n2)C2COC(=O)c3c4c5c(cccc5n3O)COC(=O)C(O[C@H]3C[C@](C)(O)[C@H](N(C)C)[C@H](C)O3)C(OC4)C(NC(=O)c3csc1n3)c1nc(cs1)C(=O)N2 (stereo partly drawn) [Example 17] | 4.0 µg/mL (≈ 2.62 µM) | 0.03 µg/mL (≈ 0.0197 µM) | 2.0 µg/mL (≈ 1.31 µM) | –
CCN(CC)CCN(CCN(CC)CC)CC(NC(=O)c1csc(-c2nc3c(cc2O)-c2nc(cs2)C(=O)NC(C(C)O)C(=O)N/C(=C(\C)OC)c2nc(cs2)C(=O)NC2c4nc(cs4)C(=O)NC(COC(=O)c4c5c6c(cccc6n4O)COC(=O)C(O[C@H]4C[C@](C)(O)[C@H](N(C)C)[C@H](C)O4)C2OC5)c2nc-3cs2)n1)C(N)=O (stereo partly drawn) [Example 24] | – | – | – | MIC (μg/mL) against Enterococcus faecalis A20688 [1]: 2.0 µg/mL (≈ 1.21 µM); MIC (μg/mL) against Streptococcus pneumoniae A28272 [2]: 0.007 µg/mL (≈ 0.00423 µM); MIC (μg/mL) against Staphylococcus aureus A15090 [3]: 1.0 µg/mL (≈ 0.605 µM)
CO/C(C)=C1/NC(=O)C(C(C)O)NC(=O)c2csc(n2)-c2cc(O)c(-c3nc(C(=O)NC(CSCCc4nnn[nH]4)C(N)=O)cs3)nc2-c2csc(n2)C2COC(=O)c3c4c5c(cccc5n3O)COC(=O)C(O[C@H]3C[C@](C)(O)[C@H](N(C)C)[C@H](C)O3)C(OC4)C(NC(=O)c3csc1n3)c1nc(cs1)C(=O)N2 (stereo partly drawn) [Example 47] | 32 µg/mL (≈ 20.4 µM) | 0.25 µg/mL (≈ 0.159 µM) | 2.0 µg/mL (≈ 1.28 µM) | –
COC(C)=C1NC(=O)C(C(C)O)NC(=O)c2csc(n2)-c2cc(O)c(-c3nc(C(=O)NC(CN(C)CCCNc4ccncc4)C(N)=O)cs3)nc2-c2csc(n2)C2COC(=O)c3c4c5c(cccc5n3O)COC(=O)C(OC3CC(C)(O)C(N(C)C)C(C)O3)C(OC4)C(NC(=O)c3csc1n3)c1nc(cs1)C(=O)N2 (stereo not drawn) [Example 83] | 0.5 µg/mL (≈ 0.312 µM) | 0.25 µg/mL (≈ 0.156 µM) | 1.0 µg/mL (≈ 0.624 µM) | –
CCN(CC)CCS(=O)(=O)CC(NC(=O)c1csc(-c2nc3c(cc2O)-c2nc(cs2)C(=O)NC(C(C)O)C(=O)N/C(=C(\C)OC)c2nc(cs2)C(=O)NC2c4nc(cs4)C(=O)NC(COC(=O)c4c5c6c(cccc6n4O)COC(=O)C(O[C@H]4C[C@](C)(O)C(N(C)C)[C@H](C)O4)C2OC5)c2nc-3cs2)n1)C(N)=O (stereo partly drawn) [Example 103] | – | – | – | MIC [1]: 0.03 µg/mL (≈ 0.0187 µM); MIC [2]: 0.007 µg/mL (≈ 0.00437 µM); MIC [3]: 0.06 µg/mL (≈ 0.0374 µM)
CCC(O)C1CCCN1CC(NC(=O)c1csc(-c2nc3c(cc2O)-c2nc(cs2)C(=O)NC(C(C)O)C(=O)NC(=C(C)OC)c2nc(cs2)C(=O)NC2c4nc(cs4)C(=O)NC(COC(=O)c4c5c6c(cccc6n4O)COC(=O)C(OC4CC(C)(O)C(N(C)C)C(C)O4)C2OC5)c2nc-3cs2)n1)C(N)=O (stereo not drawn) [Example 87] | 0.06 µg/mL (≈ 0.0383 µM) | 0.007 µg/mL (≈ 0.00447 µM) | 0.015 µg/mL (≈ 0.00957 µM) | –
CO/C(C)=C1/NC(=O)C(C(C)O)NC(=O)c2csc(n2)-c2cc(O)c(-c3nc(C(=O)NC(CNCCn4cc([N+](=O)[O-])nc4C)C(N)=O)cs3)nc2-c2csc(n2)C2COC(=O)c3c4c5c(cccc5n3O)COC(=O)C(O[C@H]3C[C@](C)(O)[C@H](N(C)C)[C@H](C)O3)C(OC4)C(NC(=O)c3csc1n3)c1nc(cs1)C(=O)N2 (stereo partly drawn) [Example 68] | 8.0 µg/mL (≈ 4.98 µM) | 0.5 µg/mL (≈ 0.311 µM) | 2.0 µg/mL (≈ 1.24 µM) | –
COC(C)=C1NC(=O)C(C(C)O)NC(=O)c2csc(n2)-c2cc(O)c(-c3nc(C(=O)NC(CN(C)CCCn4ccnc4)C(N)=O)cs3)nc2-c2csc(n2)C2COC(=O)c3c4c5c(cccc5n3O)COC(=O)C(O)C(OC4)C(NC(=O)c3csc1n3)c1nc(cs1)C(=O)N2 (stereo not drawn) [Example 97] | 0.25 µg/mL (≈ 0.178 µM) | 0.125 µg/mL (≈ 0.0889 µM) | 0.125 µg/mL (≈ 0.0889 µM) | –
COC(C)=C1NC(=O)C(C(C)O)NC(=O)c2csc(n2)-c2cc(O)c(-c3nc(C(=O)NC(CN4CCC(O)C4)C(N)=O)cs3)nc2-c2csc(n2)C2COC(=O)c3c4c5c(cccc5n3O)COC(=O)C(OC3CC(C)(O)C(N(C)C)C(C)O3)C(OC4)C(NC(=O)c3csc1n3)c1nc(cs1)C(=O)N2 (stereo not drawn) [Example 37] | 0.125 µg/mL (≈ 0.082 µM) | 0.007 µg/mL (≈ 0.00459 µM) | 0.06 µg/mL (≈ 0.0394 µM) | –
CO/C(C)=C1/NC(=O)C(C(C)O)NC(=O)c2csc(n2)-c2cc(O)c(-c3nc(C(=O)NC(CSCC(=O)OCc4ccccc4)C(N)=O)cs3)nc2-c2csc(n2)C2COC(=O)c3c4c5c(cccc5n3O)COC(=O)C(O[C@H]3C[C@](C)(O)[C@H](N(C)C)[C@H](C)O3)C(OC4)C(NC(=O)c3csc1n3)c1nc(cs1)C(=O)N2 (stereo partly drawn) [Example 34] | 1.0 µg/mL (≈ 0.617 µM) | 0.001 µg/mL (≈ 0.000617 µM) | 1.0 µg/mL (≈ 0.617 µM) | –
COC(C)=C1NC(=O)C(C(C)O)NC(=O)c2csc(n2)-c2cc(O)c(-c3nc(C(=O)NC(CN(C)C(=O)CCC(=O)O)C(N)=O)cs3)nc2-c2csc(n2)C2COC(=O)c3c4c5c(cccc5n3O)COC(=O)C(OC3CC(C)(O)C(N(C)C)C(C)O3)C(OC4)C(NC(=O)c3csc1n3)c1nc(cs1)C(=O)N2 (stereo not drawn) [Example 106] | 32 µg/mL (≈ 20.4 µM) | 8.0 µg/mL (≈ 5.1 µM) | 4.0 µg/mL (≈ 2.55 µM) | –
COC(C)=C1NC(=O)C(C(C)O)NC(=O)c2csc(n2)-c2cc(O)c(-c3nc(C(=O)NC(CN4CC5CC4CN5C)C(N)=O)cs3)nc2-c2csc(n2)C2COC(=O)c3c4c5c(cccc5n3O)COC(=O)C(OC3CC(C)(O)C(N(C)C)C(C)O3)C(OC4)C(NC(=O)c3csc1n3)c1nc(cs1)C(=O)N2 (stereo not drawn) [Example 74] | – | – | – | MIC (μg/mL) against Enterococcus faecalis A20688 [1]: 2.0 µg/mL (≈ 1.29 µM); MIC (μg/mL) against Streptococcus pneumoniae A28272 [2]: 0.015 µg/mL (≈ 0.00968 µM); MIC (μg/mL) against Staphylococcus aureus A15090 [3]: 0.5 µg/mL (≈ 0.323 µM)
CO/C(C)=C1/NC(=O)C(C(C)O)NC(=O)c2csc(n2)-c2cc(O)c(-c3nc(C(=O)NC(CSCC(=O)O)C(N)=O)cs3)nc2-c2csc(n2)C2COC(=O)c3c4c5c(cccc5n3O)COC(=O)C(O[C@H]3C[C@](C)(O)[C@H](N(C)C)[C@H](C)O3)C(OC4)C(NC(=O)c3csc1n3)c1nc(cs1)C(=O)N2 (stereo partly drawn) [Example 4] | – | – | – | MIC [1]: 2 µg/mL (≈ 1.31 µM); MIC [2]: 0.125 µg/mL (≈ 0.0817 µM); MIC [3]: 2 µg/mL (≈ 1.31 µM)
CO/C(C)=C1/NC(=O)C(C(C)O)NC(=O)c2csc(n2)-c2cc(O)c(-c3nc(C(=O)NC(CN4CCCC4)C(N)=O)cs3)nc2-c2csc(n2)C2COC(=O)c3c4c5c(cccc5n3O)COC(=O)C(O[C@H]3C[C@](C)(O)[C@H](N(C)C)[C@H](C)O3)C(OC4)C(NC(=O)c3csc1n3)c1nc(cs1)C(=O)N2 (stereo partly drawn) [Example 15] | – | – | – | MIC (μg/mL) against Enterococcus faecalis A20688 [1]: 0.5 µg/mL (≈ 0.331 µM); MIC (μg/mL) against Streptococcus pneumoniae A28272 [2]: 0.015 µg/mL (≈ 0.00994 µM); MIC (μg/mL) against Staphylococcus aureus A15090 [3]: 0.06 µg/mL (≈ 0.0398 µM)
CO/C(C)=C1/NC(=O)C(C(C)O)NC(=O)c2csc(n2)-c2cc(O)c(-c3nc(C(=O)NC(CN(C)CCc4c[nH]cn4)C(N)=O)cs3)nc2-c2csc(n2)C2COC(=O)c3c4c5c(cccc5n3O)COC(=O)C(O[C@H]3C[C@](C)(O)[C@H](N(C)C)[C@H](C)O3)C(OC4)C(NC(=O)c3csc1n3)c1nc(cs1)C(=O)N2 (stereo partly drawn) [Example 56] | – | – | – | MIC (μg/mL) against Enterococcus faecalis A20688 [1]: 0.5 µg/mL (≈ 0.32 µM); MIC (μg/mL) against Streptococcus pneumoniae A28272 [2]: 0.125 µg/mL (≈ 0.08 µM); MIC (μg/mL) against Staphylococcus aureus A15090 [3]: 0.25 µg/mL (≈ 0.16 µM)
COC(C)=C1NC(=O)C(C(C)O)NC(=O)c2csc(n2)-c2cc(O)c(-c3nc(C(=O)NC(CN4CCCC4C(O)C4CCCCC4)C(N)=O)cs3)nc2-c2csc(n2)C2COC(=O)c3c4c5c(cccc5n3O)COC(=O)C(OC3CC(C)(O)C(N(C)C)C(C)O3)C(OC4)C(NC(=O)c3csc1n3)c1nc(cs1)C(=O)N2 (stereo not drawn) [Example 90] | 0.06 µg/mL (≈ 0.037 µM) | 0.007 µg/mL (≈ 0.00432 µM) | 0.03 µg/mL (≈ 0.0185 µM) | –
